Assay results: ChEMBL document CHEMBL3352227, “Synthesis, antimycobacterial and antibacterial evaluation of l-[(1R, 2S)-2-fluorocyclopropyl]fluoroquinolone derivatives containing an oxime functional moiety” (Eur J Med Chem, 2014)
Converted amounts (≈) assume the structure as drawn.

Legend:
Format in all cases: functional
[1] = system: Mycobacterium tuberculosis; assay: Antimycobacterial activity against Mycobacterium tuberculosis H37Rv ATCC 27294 by MABA method
Escherichia coli [2] = assay: Antibacterial activity against Escherichia coli ATCC 25922 after 18 to 24 hrs by standard twofold serial dilution method
Escherichia coli [3] = assay: Antibacterial activity against extended-spectrum beta-lactamase producing Escherichia coli 12-15 after 18 to 24 hrs by standard twofold serial dilution method
Klebsiella pneumoniae [4] = assay: Antibacterial activity against Klebsiella pneumoniae 12-1 after 18 to 24 hrs by standard twofold serial dilution method
Klebsiella pneumoniae [5] = assay: Antibacterial activity against Klebsiella pneumoniae 12-2 after 18 to 24 hrs by standard twofold serial dilution method
Klebsiella pneumoniae [6] = assay: Antibacterial activity against Klebsiella pneumoniae 12-4 after 18 to 24 hrs by standard twofold serial dilution method
Klebsiella pneumoniae [7] = assay: Antibacterial activity against extended-spectrum beta-lactamase producin Klebsiella pneumoniae 12-3 after 18 to 24 hrs by standard twofold serial dilution method
Klebsiella pneumoniae [8] = assay: Antibacterial activity against extended-spectrum beta-lactamase producin Klebsiella pneumoniae 12-4 after 18 to 24 hrs by standard twofold serial dilution method
Klebsiella pneumoniae [9] = assay: Antibacterial activity against extended-spectrum beta-lactamase producin Klebsiella pneumoniae 12-7 after 18 to 24 hrs by standard twofold serial dilution method
Klebsiella pneumoniae [10] = assay: Antibacterial activity against extended-spectrum beta-lactamase producin Klebsiella pneumoniae 12-14 after 18 to 24 hrs by standard twofold serial dilution method
Pseudomonas aeruginosa [11] = assay: Antibacterial activity against Pseudomonas aeruginosa 12-14 after 18 to 24 hrs by standard twofold serial dilution method
Staphylococcus aureus [12] = assay: Antibacterial activity against Staphylococcus aureus ATCC 25923 after 18 to 24 hrs by standard twofold serial dilution method
Staphylococcus aureus [13] = assay: Antibacterial activity against methicillin-sensitive Staphylococcus aureus 12-1 after 18 to 24 hrs by standard twofold serial dilution method
Staphylococcus aureus [14] = assay: Antibacterial activity against methicillin-sensitive Staphylococcus aureus 12-2 after 18 to 24 hrs by standard twofold serial dilution method
Staphylococcus aureus [15] = assay: Antibacterial activity against methicillin-sensitive Staphylococcus aureus 12-4 after 18 to 24 hrs by standard twofold serial dilution method
Staphylococcus aureus [16] = assay: Antibacterial activity against methicillin-sensitive Staphylococcus aureus 12-5 after 18 to 24 hrs by standard twofold serial dilution method
Staphylococcus aureus [17] = assay: Antibacterial activity against methicillin-resistant Staphylococcus aureus 12-2 after 18 to 24 hrs by standard twofold serial dilution method
Staphylococcus aureus [18] = assay: Antibacterial activity against methicillin-resistant Staphylococcus aureus 12-4 after 18 to 24 hrs by standard twofold serial dilution method
Staphylococcus aureus [19] = assay: Antibacterial activity against methicillin-resistant Staphylococcus aureus 12-5 after 18 to 24 hrs by standard twofold serial dilution method
[20] = system: Staphylococcus epidermidis; assay: Antibacterial activity against methicillin-sensitive Staphylococcus epidermidis 12-1 after 18 to 24 hrs by standard twofold serial dilution method
[21] = system: Staphylococcus epidermidis; assay: Antibacterial activity against methicillin-sensitive Staphylococcus epidermidis 12-3 after 18 to 24 hrs by standard twofold serial dilution method
[22] = system: Staphylococcus epidermidis; assay: Antibacterial activity against methicillin-sensitive Staphylococcus epidermidis 12-6 after 18 to 24 hrs by standard twofold serial dilution method
[23] = system: Staphylococcus epidermidis; assay: Antibacterial activity against methicillin-sensitive Staphylococcus epidermidis 12-8 after 18 to 24 hrs by standard twofold serial dilution method
[24] = system: Staphylococcus epidermidis; assay: Antibacterial activity against methicillin-resistant Staphylococcus epidermidis 12-1 after 18 to 24 hrs by standard twofold serial dilution method
[25] = system: Staphylococcus epidermidis; assay: Antibacterial activity against methicillin-resistant Staphylococcus epidermidis 12-6 after 18 to 24 hrs by standard twofold serial dilution method
Streptococcus pneumoniae [26] = assay: Antibacterial activity against Streptococcus pneumoniae ATCC 49619 after 18 to 24 hrs by standard twofold serial dilution method
Streptococcus pneumoniae [27] = assay: Antibacterial activity against Streptococcus pneumoniae 12-18 after 18 to 24 hrs by standard twofold serial dilution method
Escherichia coli [28] = assay: Antibacterial activity against Escherichia coli 12-1 after 18 to 24 hrs by standard twofold serial dilution method
Escherichia coli [29] = assay: Antibacterial activity against extended-spectrum beta-lactamase producing Escherichia coli 12-2 after 18 to 24 hrs by standard twofold serial dilution method
Escherichia coli [30] = assay: Antibacterial activity against extended-spectrum beta-lactamase producing Escherichia coli 12-3 after 18 to 24 hrs by standard twofold serial dilution method
Escherichia coli [31] = assay: Antibacterial activity against extended-spectrum beta-lactamase producing Escherichia coli 12-14 after 18 to 24 hrs by standard twofold serial dilution method
Pseudomonas aeruginosa [32] = assay: Antibacterial activity against Pseudomonas aeruginosa 12-12 after 18 to 24 hrs by standard twofold serial dilution method

Compound	MIC [1] [µg/mL]	MIC (Escherichia coli [2]) [µg/mL]	MIC (Escherichia coli [3]) [µg/mL]	MIC (Klebsiella pneumoniae [4]) [µg/mL]	MIC (Klebsiella pneumoniae [5]) [µg/mL]	MIC (Klebsiella pneumoniae [6]) [µg/mL]	MIC (Klebsiella pneumoniae [7]) [µg/mL]	MIC (Klebsiella pneumoniae [8]) [µg/mL]	MIC (Klebsiella pneumoniae [10]) [µg/mL]	MIC (Pseudomonas aeruginosa [11]) [µg/mL]	MIC (Staphylococcus aureus [12]) [µg/mL]	MIC (Staphylococcus aureus [13]) [µg/mL]	MIC (Staphylococcus aureus [14]) [µg/mL]	MIC (Staphylococcus aureus [15]) [µg/mL]	MIC (Staphylococcus aureus [16]) [µg/mL]	MIC (Staphylococcus aureus [17]) [µg/mL]	MIC (Staphylococcus aureus [18]) [µg/mL]	MIC (Staphylococcus aureus [19]) [µg/mL]	MIC [20] [µg/mL]	MIC [21] [µg/mL]	other results
CO[C@H]1/C=C/O[C@@]2(C)Oc3c(C)c(O)c4c(O)c(c(/C=N/N5CCN(C)CC5)c(O)c4c3C2=O)NC(=O)/C(C)=C\C=C\[C@H](C)[C@H](O)[C@@H](C)[C@@H](O)[C@@H](C)[C@H](OC(C)=O)[C@@H]1C [RIFAMPIN]	0.05 (≈ 0.0608 µM)	–	–	–	–	–	–	–	–	–	–	–	–	–	–	–	–	–	–	–	–
O=C(O)c1cn(C2CC2)c2cc(N3CCNCC3)c(F)cc2c1=O [CIPROFLOXACIN]	0.25 (≈ 0.754 µM)	< 0.008	64 (≈ 193 µM)	0.125 (≈ 0.377 µM)	0.03 (≈ 0.0905 µM)	< 0.008	32 (≈ 96.6 µM)	4 (≈ 12.1 µM)	64 (≈ 193 µM)	32 (≈ 96.6 µM)	0.25 (≈ 0.754 µM)	0.25 (≈ 0.754 µM)	0.25 (≈ 0.754 µM)	0.25 (≈ 0.754 µM)	0.25 (≈ 0.754 µM)	64 (≈ 193 µM)	64 (≈ 193 µM)	32 (≈ 96.6 µM)	0.25 (≈ 0.754 µM)	2 (≈ 6.04 µM)	MIC (Klebsiella pneumoniae [9]): 0.5 µg/mL (≈ 1.51 µM); MIC [22]: 0.25 µg/mL (≈ 0.754 µM); MIC [23]: 4 µg/mL (≈ 12.1 µM); MIC [24]: 8 µg/mL (≈ 24.1 µM); MIC [25]: 16 µg/mL (≈ 48.3 µM); MIC (Streptococcus pneumoniae [26]): 0.25 µg/mL (≈ 0.754 µM); MIC (Streptococcus pneumoniae [27]): 1 µg/mL (≈ 3.02 µM)
C[C@H]1COc2c(N3CCN(C)CC3)c(F)cc3c(=O)c(C(=O)O)cn1c23.C[C@H]1COc2c(N3CCN(C)CC3)c(F)cc3c(=O)c(C(=O)O)cn1c23.O [LEVOFLOXACIN]	0.25	< 0.008	32	0.06	< 0.008	< 0.008	16	8	16	16	< 0.008	0.125	0.125	0.125	0.125	32	32	32	0.125	0.5	MIC (Escherichia coli [28]): 0.25 µg/mL; MIC (Escherichia coli [29]): 16 µg/mL; MIC (Escherichia coli [30]): 32 µg/mL; MIC (Escherichia coli [31]): 16 µg/mL; MIC (Pseudomonas aeruginosa [32]): 0.5 µg/mL; MIC [22]: 0.125 µg/mL; MIC [23]: 4 µg/mL; MIC [24]: 4 µg/mL; MIC [25]: 32 µg/mL; MIC (Streptococcus pneumoniae [26]): 0.125 µg/mL
NNC(=O)c1ccncc1 [ISONIAZID]	0.05 (≈ 0.365 µM)	–	–	–	–	–	–	–	–	–	–	–	–	–	–	–	–	–	–	–	–
COc1c(N2C[C@@H]3CCCN[C@@H]3C2)c(F)cc2c(=O)c(C(=O)O)cn(C3CC3)c12 [MOXIFLOXACIN]	–	< 0.008	32 (≈ 79.7 µM)	0.015 (≈ 0.0374 µM)	0.06 (≈ 0.149 µM)	0.03 (≈ 0.0747 µM)	32 (≈ 79.7 µM)	0.5 (≈ 1.25 µM)	64 (≈ 159 µM)	16 (≈ 39.9 µM)	< 0.008	0.015 (≈ 0.0374 µM)	< 0.008	< 0.008	0.015 (≈ 0.0374 µM)	8 (≈ 19.9 µM)	8 (≈ 19.9 µM)	8 (≈ 19.9 µM)	0.03 (≈ 0.0747 µM)	0.125 (≈ 0.311 µM)	MIC (Escherichia coli [28]): 0.5 µg/mL (≈ 1.25 µM); MIC (Escherichia coli [29]): 32 µg/mL (≈ 79.7 µM); MIC (Escherichia coli [30]): 64 µg/mL (≈ 159 µM); MIC (Klebsiella pneumoniae [9]): 0.5 µg/mL (≈ 1.25 µM); MIC (Pseudomonas aeruginosa [32]): 2 µg/mL (≈ 4.98 µM); MIC [22]: 0.03 µg/mL (≈ 0.0747 µM); MIC [23]: 1 µg/mL (≈ 2.49 µM); MIC [24]: 0.25 µg/mL (≈ 0.623 µM); MIC [25]: 16 µg/mL (≈ 39.9 µM); MIC (Streptococcus pneumoniae [26]): 0.06 µg/mL (≈ 0.149 µM); MIC (Streptococcus pneumoniae [27]): 0.5 µg/mL (≈ 1.25 µM)
